Results: patent publication US20240424146A1, “DRUG SCREENING METHOD AND MODEL FOR MONITORING PLATINUM-RESISTANT OVARIAN CANCER TUMOR GROWTH AND METASTASES” (THE BOARD OF REGENTS OF THE UNIVERSITY OF OKLAHOMA, priority 2023, published 2024)

System: OVCAR-8 CPR Luc cells
Experiment: cisplatin dose response, cell viability by MTS assay
Format: cell-based, human
Details: non-linear regression, FIG. 1
Protocol: Cells were treated with increasing doses of cisplatin and cell viability was measured using the MTS assay. IC50 values were calculated using non-linear regression analysis in GraphPad Prism software.
Next, we confirmed that these cells retained their inherent response to cisplatin. […] To determine if luciferase activity could be visualized in vitro we plated the OVCAR-8 CPR Luc cells in 2-dimensional (2D) adherent and suspended three-dimensional (3D) spheroid conditions.

N.N.[Cl][Pt][Cl] [cisplatin]
IC50 of OVCAR-8 CPR Luc cells to cisplatin relative to cisplatin-sensitive cells (OVCAR-8 Luc): twice
